We go through four molecules from patent US6323365A (Yissum Research Development Company of the Hebrew …, priority 2000, dated 2001).

The nature of series [1]: in vivo. To be noted: rat, po.
For series [2], the system named is seizure spread. The series is described as follows: maximal electroshock (MES) test. To be noted: for ED50: Rattus norvegicus, po, read-out: MES anticonvulsant activity (ED50). For orientation: The maximal electroshock test induces tonic seizures with an electrical stimulus.
Series [3] relates to seizure threshold. The series is described as follows: subcutaneous metrazol (sc Met) test. To be noted: Rattus norvegicus, po, read-out: sc Met anticonvulsant activity (ED50).
Series [4] deals with offspring. The note with it: cited from earlier work.

What is called ED50 is the dose that gives a 50% effect, or the effect in half of the subjects.

As for `CCCC(CCC)C(=O)NC[C@@H](C)O` [(R)-HP-VPD, N-(2-OH-propyl)valpromide], in series [1], the TD50 was more than 500 mg/kg. Moreover, the ED50 in series [2] came to 117 mg/kg. For the same molecule, the “PI-MES (protective index): TD50/ED50” value in series [2] (oral, rats, MES) is recorded as more than 4.3.
Turning to `CCCC(CCC)C(=O)NCC(C)O` (racemic) [HP-VPD (rac)], the TD50 in series [1] was more than 250 mg/kg. Also, the “potency in MES test relative to VPA” value in series [2] (MES test, vs VPA) is listed as “five times more potent than VPA”. Further, the figures for the ED50 in series [2] and in series [3] were 92 mg/kg and more than 250 mg/kg, respectively. Moreover, the “PI-MES (protective index): TD50/ED50” value in series [2] (oral, rats, MES) is given as more than 2.7.
`CCCC(CCC)C(=O)NC[C@H](C)O` [(S)-HP-VPD, N-(2-OH-propyl)valpromide] showed a TD50 in series [1] of more than 650 mg/kg. Also, the “potency in MES test relative to (R)-HP-VPD” value in series [2] (MES test, vs (R)-HP-VPD (II)) is recorded as “more than two times more potent than (R)-HP-VPD”. In addition, the “SI (stereoselective index) = (R)-HP-VPD/(S)-HP-VPD” value in series [2] (MES, oral, rats) is reported as 2.4. The ED50 in series [2] was 48 mg/kg. In series [2] (oral, rats, MES), the “PI-MES (protective index): TD50/ED50” value was more than 13.5.
As to `CCCC(CCC)C(=O)O` [VPA, Valproic acid, reference compound], the teratogenicity entry in series [4] is “associated with teragenecity”. For the same molecule, the ED50 in series [2] worked out at 490 mg/kg; in series [3], 180 mg/kg.
